Source: patent US11952365B2, “Anti-viral compounds” (Aligos Therapeutics, Inc., priority 2020, dated 2024)
Like-named read-outs stand apart in the source and are kept apart here.

Assays:
[1] = biological target: HRV3C (Human rhinovirus 14, UniProt P03303); experiment: HRV3C protease assay (duplex, SAMDI-MS); format: biochemical, HRV; settings: 30 mins preincubation
Procedure: Protease assays were performed in 384-well low volume polypropylene microtiter plates at ambient temperature. For the duplex assay, 3CLpro and HRV3C was added using a Multidrop Combi (Thermo Scientific; Waltham, MA) and preincubated for 30 mins with small molecules. The reactions were initiated by the addition of the two peptide substrates. The reactions were incubated for 30 mins and quenched by the addition of 0.5% formic acid (final) with subsequent neutralization using 1% sodium bicarbonate (final). Internal standard peptides were added in 20 mM Hepes pH 8.0 for quantitation of the protease products. For SAMDI-MS analysis, 2 μL of each reaction mixture was transferred using a 384-channel automated liquid handler to SAMDI biochip arrays functionalized with a neutravidin-presenting self-assembled monolayer. The SAMDI arrays were incubated for 1 h in a humidified chamber to allow the specific immobilization of the biotinylated peptide substrates, cleaved products and internal standards. The samples were purified by washing the SAMDI arrays with deionized ultrafiltered water and dried with compressed air. A matrix comprising alpha-cyano cinnamic acid in 80% acetonitrile:20% aqueous ammonium citrate was applied in an automated format by dispensing 50 nL to each spot in the array. SAMDI-MS was performed using reflector-positive mode on an AB Sciex TOF-TOF 5800 System (AB Sciex, Framingham, MA) with 400 shots/spot analyzed in a random raster sampling. For data analysis, area under the curves (peaks) (AUCs) for the product and internal standard were calculated using the TOF/TOF Series Explorer (AB Sciex), and the amount of product formed was calculated using the equation (AUC product/AUC internal standard). The amount of product generated was calculated using the ratio of product area under the curve (AUC) divided by the AUC of the internal standard. Negative controls were pre-quenched with 0.5% formic acid final. Assay robustness was determined by Z-Factor. The IC50s were determined by fitting the curves using a four-parameter equation in Graphpad Prism 8.

[2] = tested on: human beta-coronavirus OC43; experiment: microbe, parasite or virus in culture; format: cell-based; settings: Betacoronavirus 1, OC43, HeLa, 144 h, OC43 in HeLa cells, 6 days at 33° C., read-out: EC50
[3] = Cytotoxicity plates without OC43 virus (cell-titer-glo); format: cell-based, human; settings: human; HeLa cells without OC43 virus, class symbols
Procedure: The human beta-coronavirus OC43 was purchased from ATCC (Manassas, VA) and propagated using HCT-8 human colorectal epithelial cells (ATCC). HeLa human cervical epithelial cells (ATCC) were used as susceptible host cell lines and were cultured using EMEM media, supplemented with 10% fetal bovine serum (FBS), 1% (v/v) penicillin/streptomycin (P/S), 1% (v/v) HEPES and 1% (v/v) Cellgro Glutagro™ supplement (all Corning, Manassas, VA) at 37° C. For the OC43 antiviral assay, 1.5×10^4 HeLa cells per well were plated in 100 μL complete media in white 96-well plates with clear bottoms at 37° C. for up to 24 h to facilitate attachment and allow cells to recover from seeding stresses. Next day, the cell culture medium was removed. Serially diluted compounds in 100 μL assay media (EMEM, 2% FBS, 1% P/S, 1% Cellgro Glutagro™ supplement, 1% HEPES) were added to the cells and incubated for 4H at 37° C. in a humidified 5% CO2 incubator. 100 μL of OC43 virus stock was diluted to a concentration known to produce optimal cytopathic effect, inducing 80-90% reduction in cell viability. 96-well plates were incubated for 6 (HeLa) days at 33° C.; each plate contains uninfected control wells as well as virus-infected wells that were not treated with compound. Cytotoxicity plates without the addition of OC43 virus were carried out in parallel. At the end of the incubation period, 100 μL cell culture supernatant was replaced with 100 μL cell-titer-glo reagent (Promega, Madison, WI) and incubated for at least 10 min at rt prior to measuring luminescence. Luminescence was measured on a Perkin Elmer (Waltham, MA) Envision plate reader. Antiviral % inhibition was calculated as follows: [(Compound treated cells infected sample)−(no compound infected control)]/[(Uninfected control)−(no compound infected control)]*100; Using GraphPad (San Diego, CA) prism software version 8.3.1, the antiviral dose-response plot was generated as a sigmoidal fit, log(inhibitor) vs response-variable slope (four parameters) model and the EC50 was calculated which is the predicted compound concentration corresponding to a 50% inhibition of the viral cytopathic effect.

[4] = biological target: T1, human cathepsin L (Homo sapiens, UniProt P07711); experiment: cathepsin L assay; format: biochemical; settings: 10 pM human cathepsin L, Z-FR-AMC 2 μM, class symbols
T1 construct: purchased R&D Systems
Procedure: For the cathepsin L assay, 10 pM of human cathepsin L (R&D Systems; Minneapolis, MN) was preincubated for 30 mins with test compounds. Reactions were initiated by the addition of a peptide substrate Z-FR-AMC (final concentration 2 μM, Anaspec; Fremont, CA). Fluorescence was measured at 2-minute intervals for 30 mins using a 355/460 excitation/emission filter module on an Envision plate reader (Perkin Elmer; Waltham, MA). The IC50 values were calculated for each assay by fitting the curves using a four-parameter equation in GraphPad Prism.

[5] = biological target: 3CLpro (Severe acute respiratory syndrome coronavirus 2, UniProt P0DTD1); experiment: SARS-CoV-2 3CLpro protease assay (duplex, SAMDI-MS); format: biochemical; parameters: For the duplex assay, 3CLpro and HRV3C was added; settings: 3CLpro, 30 mins preincubation, class symbols; read-out: SARS-Cov-2 IC50
[6] = tested on: SARS-CoV-2-GHB-03021/2020; experiment: microbe, parasite or virus in culture; format: cell-based; settings: Severe acute respiratory syndrome coronavirus 2, Vero C1008, 96 h; read-out: VeroE6 + CP (EC50)
[7] = HRV3C, bound, read-out: HRV IC50
[8] = HRV3C, class symbols, read-out: HRV IC50

For `COc1cccc2[nH]c(C(=O)N3C[C@H]4CCCC[C@H]4[C@@H]3C(=O)N[C@@H](C[C@@H]3CCCNC3=O)C(=O)COCc3ccccc3)cc12` (single isomer, unassigned) [Compound 59A_2], the IC50 [1, 7] was greater than 10 µM, the EC50 ([2]; class symbols) was 1 to 10 µM and the CC50 at 6 days [3] was greater than 10 µM. For the same compound, the IC50 [4] was no less than 10 µM and the IC50 [5] was 0.2 to 2 µM.
Work on `C=CC[C@@H]1C[C@@H](C(=O)N[C@@H](C[C@@H]2CCNC2=O)C(=O)C(=O)NCc2ccccc2)N(C(=O)c2cc3ccccc3[nH]2)C1` [Compound 21] yielded an IC50 ([1]; HRV IC50, HRV3C, class symbols) of 2 to 20 µM, an EC50 ([2]; class symbols) of 0.1 to 1 µM and a CC50 at 6 days [3] greater than 10 µM. The EC50 [6] was 10 to 100 µM and the IC50 [5] was 0.2 to 2 µM.
With `COc1cccc2[nH]c(C(=O)N3C[C@@H]4CCCC[C@@H]4[C@H]3C(=O)N[C@@H](C[C@@H]3CCCNC3=O)C(=O)CO)cc12` [Compound 59_1, (1S,3aR,7aS)—N—((S)-4-hydroxy-3-oxo-1-((S)-2-oxopiperidin-3-yl)butan-2-yl)-2-(4-methoxy-1H-indole-2-carbonyl)octahydro-1H-isoindole-1-carboxamide] the IC50 [1, 8] was 2 to 20 µM, the EC50 ([2]; class symbols) was 0.1 to 1 µM and the CC50 at 6 days [3] was greater than 10 µM. For the same compound, the IC50 [4] was no less than 10 µM and the IC50 [5] was less than 0.02 µM.
In the case of `COc1cccc2[nH]c(C(=O)N3C[C@H]4CCCC[C@H]4[C@@H]3C(=O)N[C@@H](C[C@@H]3CCCNC3=O)C(=O)CO)cc12` [Compound 59_2, (1R,3aS,7aR)—N—((S)-4-hydroxy-3-oxo-1-((S)-2-oxopiperidin-3-yl)butan-2-yl)-2-(4-methoxy-1H-indole-2-carbonyl)octahydro-1H-isoindole-1-carboxamide], the IC50 [1, 7] is reported as greater than 10 µM, the EC50 ([2]; class symbols) is reported as 1 to 10 µM and the CC50 at 6 days [3] is reported as greater than 10 µM. For the same compound, the IC50 [4] was no less than 10 µM and the IC50 [5] was 0.2 to 2 µM.
In the case of `COc1cccc2[nH]c(C(=O)N3CC4(C5CC5)CC3(C(=O)N[C@@H](C[C@@H]3CCNC3=O)C(=O)C(=O)NC3CC3)C4)cc12` [Compound 131], the IC50 [1, 8] is reported as 0.02 to 0.2 µM, the EC50 ([2]; bound) is reported as greater than 10 µM and the CC50 at 6 days [3] is reported as greater than 10 µM. It also gave an IC50 [4] of no less than 10 µM and an IC50 [5] of 0.02 to 0.2 µM.
`N#C[C@H](C[C@@H]1CCNC1=O)NC(=O)[C@@H]1[C@H]2CCC[C@H]2CN1C(=O)c1cc2c(Cl)ccc(C(F)(F)F)c2[nH]1` [Compound 175] gave an IC50 [1, 7] greater than 10 µM, an EC50 ([2]; class symbols) of 1 to 10 µM and a CC50 at 6 days [3] greater than 10 µM. For the same compound, the IC50 [4] was no less than 10 µM and the IC50 [5] was 0.2 to 2 µM.
In the case of `COc1ccc(Cl)c2cc(C(=O)N3C[C@@H]4CCC[C@@H]4[C@H]3C(=O)N[C@@H](C[C@@H]3CCNC3=O)C(=O)CO)[nH]c12` [Compound 176], the IC50 [1, 7] is reported as greater than 10 µM, the EC50 ([2]; class symbols) is reported as 0.1 to 1 µM and the CC50 at 6 days [3] is reported as greater than 10 µM. For the same compound, the IC50 [4] was no less than 10 µM and the IC50 [5] was 0.02 to 0.2 µM.
In the case of `C#C[C@H](C[C@@H]1CCNC1=O)NC(=O)[C@@H]1[C@H]2CCC[C@H]2CN1C(=O)c1cc2c(Cl)ccc(Cl)c2[nH]1` [Compound 177, (1S,3aR,6aS)-2-(4,7-dichloro-1H-indole-2-carbonyl)-N-[(2S)-1-[(3S)-2-oxopyrrolidin-3-yl]but-3-yn-2-yl]-hexahydro-1H-cyclopenta[c]pyrrole-1-carboxamide], the IC50 [1, 7] is reported as greater than 10 µM, the EC50 ([2]; bound) is reported as greater than 10 µM and the CC50 at 6 days [3] is reported as greater than 10 µM. The IC50 [4] was no less than 10 µM and the IC50 [5] was 2 to 20 µM.
In the case of `COc1cc(F)c(F)c2[nH]c(C(=O)N3C[C@@H]4CCC[C@@H]4[C@H]3C(=O)N[C@@H](C[C@@H]3CCNC3=O)C(=O)CO)cc12` [Compound 184, (1S,3aR,6aS)-2-(6,7-difluoro-4-methoxy-1H-indole-2-carbonyl)-N-[(2S)-4-hydroxy-3-oxo-1-[(3S)-2-oxopyrrolidin-3-yl]butan-2-yl]-hexahydro-1H-cyclopenta[c]pyrrole-1-carboxamide], the IC50 [1, 8] is reported as 2 to 20 µM, the IC50 [4] is reported as no less than 10 µM and the IC50 [5] is reported as less than 0.02 µM.
Work on `N#C[C@H](C[C@@H]1CCNC1=O)NC(=O)[C@@H]1[C@H]2CCC[C@H]2CN1C(=O)c1cc2c(OC3CC3)cc(Cl)cc2[nH]1` [Compound 185, (1S,3aR,6aS)-2-(6-chloro-4-cyclopropoxy-1H-indole-2-carbonyl)-N-[(1S)-1-cyano-2-[(3S)-2-oxopyrrolidin-3-yl]ethyl]-hexahydro-1H-cyclopenta[c]pyrrole-1-carboxamide] yielded an IC50 [1, 7] greater than 10 µM, an IC50 [4] of no less than 10 µM and an IC50 [5] of 0.2 to 2 µM.
For `N#C[C@H](C[C@@H]1CCNC1=O)NC(=O)[C@@H]1[C@H]2CCC[C@H]2CN1C(=O)c1nc2c(Cl)ccc(Cl)c2[nH]1` [Compound 186], the IC50 [1, 7] was greater than 10 µM, the IC50 [4] was no less than 10 µM and the IC50 [5] was 0.2 to 2 µM.
With `N#C[C@H](C[C@@H]1CCNC1=O)NC(=O)[C@@H]1[C@H]2CCC[C@H]2CN1C(=O)c1cc2c(Cl)cc(F)cc2[nH]1` [Compound 187] the IC50 [1, 7] was greater than 10 µM, the IC50 [4] was no less than 10 µM and the IC50 [5] was 0.2 to 2 µM.
For `N#C[C@H](C[C@@H]1CCNC1=O)NC(=O)[C@@H]1[C@H]2CCC[C@H]2CN1C(=O)c1cc2c(Cl)cc(Cl)cc2[nH]1` [Compound 188], the IC50 [1, 7] was greater than 10 µM, the IC50 [4] was no less than 10 µM and the IC50 [5] was 0.2 to 2 µM.
With `COc1ccc(F)c2[nH]c(C(=O)N3C[C@@H]4CCC[C@@H]4[C@H]3C(=O)N[C@H](C#N)C[C@@H]3CCNC3=O)cc12` [Compound 189] the IC50 [1, 7] was greater than 10 µM, the IC50 [4] was no less than 10 µM and the IC50 [5] was 0.2 to 2 µM.
`N#C[C@H](C[C@@H]1CCNC1=O)NC(=O)[C@@H]1[C@H]2CCC[C@H]2CN1C(=O)c1cc2c(OC(F)F)cccc2[nH]1` [Compound 190] gave an IC50 [1, 7] greater than 10 µM, an IC50 [4] of no less than 10 µM and an IC50 [5] of 0.2 to 2 µM.
With `COc1nccc2[nH]c(C(=O)N3C[C@@H]4CCC[C@@H]4[C@H]3C(=O)N[C@H](C#N)C[C@@H]3CCNC3=O)cc12` [Compound 191] the IC50 [1, 7] was greater than 10 µM, the IC50 [4] was no less than 10 µM and the IC50 [5] was 0.2 to 2 µM.
In the case of `COc1cc(Cl)cc2[nH]c(C(=O)N3C[C@@H]4CCC[C@@H]4[C@H]3C(=O)N[C@H](C#N)C[C@@H]3CCNC3=O)cc12` [Compound 192], the IC50 [1, 7] is reported as greater than 10 µM, the IC50 [4] is reported as no less than 10 µM and the IC50 [5] is reported as 0.2 to 2 µM.
In the case of `CCOC(=O)c1cc(C(=O)N2C[C@@H]3CCC[C@@H]3[C@H]2C(=O)N[C@H](C#N)C[C@@H]2CCNC2=O)[nH]c1C` [Compound 193], the IC50 [1, 7] is reported as greater than 10 µM, the IC50 [4] is reported as no less than 10 µM and the IC50 [5] is reported as 0.2 to 2 µM.
